# In patent US20080058636A1, “METHODS OF MYOCARDIAL IMAGING” (Epix Pharmaceuticals, Inc., priority 2005, published 2008):
# Bridge positions count the residues as written; N and C are the ends. Ends that are not written are not given here.
# What was measured:
# [1] = Biodistribution (heart, blood) after tail vein injection, radiotracer counting; format: in vivo, Sprague-Dawley rats; conditions: for Blood (% ID/g) / Heart (% ID/g): rat, 0.5 μmol/kg tail vein
# Experimental: Concentration estimates were decay corrected. Studies were performed at least in duplicate.
# [2] = test system: perfused Langendorff rat heart; assay: Equilibrium binding to perfused Langendorff rat heart
# Experimental: After deep anesthesia with pentobarbital (80 mg/kg ip), the chest cavity of a male Sprague Dawley rat (300 g) was opened, retracted and the heart was removed immediately and placed in an ice-cold normal Krebs-Henseleit (K-H) solution (NaCl, 118 mM; KCl, 4.7 mM; CaCl2, 2.5 mM; MgSO4, 1.2 mM; KH2PO4, 1.2 mM; NaHCO3, 25 mM; glucose, 5.5 mM). A K-H buffer filled 20 Gauge needle was inserted into the apex of the heart penetrating into the bottom of the chamber. This was attached to a pressure transducer used to record and monitor heart function. Perfusion pressure (60 mmHg) was monitored using a second transducer. The heart was perfused at a constant flow rate of 10-12 mL/min with 37° C. Krebs-Henseleit buffer saturated with a mixture of 95% O2 and 5% CO2 gas. The heart was paced at 300 beats/min.
# Two peptide test articles, a high collagen binding peptide (SEQ ID NO: 144) and a low collagen binding peptide (SEQ ID NO: 173), are compared to GdDTPA. The appropriate test article was added to the K-H buffer solution to a total concentration of either 3 or 30 μM. Also added to the K-H buffer was a radiotracer analog of each peptide or GdDTPA. For the peptides, the radiotracer was an aliquot of the appropriate I-125 labeled peptide derivative (see Example 5 for protocol). For GdDTPA, the tracer added was Tc-99m labeled DTPA. The amount of radioactivity added to the buffer solution was 1-5 μCi.
# The heart was perfused for a period of 10 minutes and the perfusion solution was recycled through the heart. The total volume of K-H buffer used was 50-60 mL. After 10 min, the heart was removed from the apparatus and any connective tissue was removed. The heart was opened, fluid in the chambers drained, and the interior blotted dry with filter paper. The heart was then weighed and the radioactivity in the heart measured with a Packard Cobra 5003 Gamma Scintillation counter. An aliquot of the K-H buffer was also weighed and counted. Studies were performed at least in duplicate.
# The dual peptide gadolinium tetramer (Compound ID 803) was compared to GdDTPA. Compound ID 803 and GdDTPA were added to the K-H buffer solution to a total concentration of 3 μM. Also added to the K-H buffer was a radiotracer analog of Compound ID 803 or GdDTPA. For Compound ID 803, the radiotracer was an aliquot of the In-111 labeled compound. For GdDTPA, the tracer added was Tc-99m labeled DTPA. The amount of radioactivity added to the buffer solution was 1-5 μCi.
# [3] = test system: perfused Langendorff rat heart; assay: Washout kinetics from perfused Langendorff rat heart
# Experimental: A K-H buffer filled 20 Gauge needle was inserted into the apex of the heart penetrating into the bottom of the chamber. This was attached to a pressure transducer used to record and monitor heart function. Perfusion pressure (60 mmHg) was monitored using a second transducer. The heart was perfused at a constant flow rate of 10-12 mL/min with 37° C. […] The heart was paced at 300 beats/min.
# A Langendorff rat heart preparation was perfused with K-H buffer at a rate of 10-12 mL/min. […] After the infusion was finished, the heart was either removed or perfusion was allowed to continue for an additional 10 minutes and then the heart was removed. The perfusion buffer was not recirculated through the heart. After removal of any connective tissue, the heart was opened, fluid in the chambers drained, and the interior blotted dry with filter paper. […] An aliquot of the K-H buffer was also weighed and counted. Concentration estimates were decay corrected. Studies were performed at least in duplicate.
# [4] = MR phantom study: T1 of samples at 0.47 Tesla; format: physicochemical
# Experimental: Acid soluble human collagen type I extracted from placenta (Sigma, cat# C7774, lot#083K375) was dissolved in 15 mM HCl (3.5 mg/mL) by vortexing and gently shaking for 3-4 hours at 4° C. The acid soluble collagen was dialyzed against PBS (pH 7.4). Protein concentration was determined by the BCA method (Pierce, Cat#23225) using bovine collagen (Vitrogen, cat#FXP-019) as a reference standard. The final collagen concentration for the stock solution was 9 μM.
# Rat collagen (acid soluble, type I, rat tail, Upstate USA, Inc. Cat# 08-115) was dialyzed against 10 mM Phosphate buffer (NaH2PO4, pH 4.2). The final collagen concentration for the stock solution was approx. 12 μM.
# (§1) Samples: • 1. […] Sample prepared as sample 2, but centrifuged to separate insoluble rat collagen gel • 5. Sample prepared as sample 3, but centrifuged to separate insoluble human collagen gel • 6. 27 μM GdDTPA solution in PBS, pH 7.4 • 7. 27 μM GdDTPA in a solution of 5.0 μM rat type I collagen in 10 mM phosphate buffer, pH 5 incubated at 37° C. overnight to form a gel • 8. Sample prepared as in sample 7, but centrifuged to separate insoluble rat collagen gel • 9. Homogeneous gel of 5 μM rat collagen • 10. Homogeneous gel of 7.5 μM human collagen
# T1 was determined for samples 1, 2, 3, 6, 7, 9, 10 at 0.47 Tesla using a Bruker NMS120 minispec NMR analyzer operating at 37° C.
# [5] = molecular target: T1, rat type I collagen gel (Rattus norvegicus, UniProt P02454+P02466); assay: MR phantom imaging of collagen gel samples at 4.7 T
# T1 construct: Rat collagen (acid soluble, type I, rat tail, Upstate USA, Inc, cat# 08-115); purchased Upstate USA, Inc 08-115; host or cells: rat tail (tissue extract)
# T1 sequence (P02454 152-1207 limits assumed): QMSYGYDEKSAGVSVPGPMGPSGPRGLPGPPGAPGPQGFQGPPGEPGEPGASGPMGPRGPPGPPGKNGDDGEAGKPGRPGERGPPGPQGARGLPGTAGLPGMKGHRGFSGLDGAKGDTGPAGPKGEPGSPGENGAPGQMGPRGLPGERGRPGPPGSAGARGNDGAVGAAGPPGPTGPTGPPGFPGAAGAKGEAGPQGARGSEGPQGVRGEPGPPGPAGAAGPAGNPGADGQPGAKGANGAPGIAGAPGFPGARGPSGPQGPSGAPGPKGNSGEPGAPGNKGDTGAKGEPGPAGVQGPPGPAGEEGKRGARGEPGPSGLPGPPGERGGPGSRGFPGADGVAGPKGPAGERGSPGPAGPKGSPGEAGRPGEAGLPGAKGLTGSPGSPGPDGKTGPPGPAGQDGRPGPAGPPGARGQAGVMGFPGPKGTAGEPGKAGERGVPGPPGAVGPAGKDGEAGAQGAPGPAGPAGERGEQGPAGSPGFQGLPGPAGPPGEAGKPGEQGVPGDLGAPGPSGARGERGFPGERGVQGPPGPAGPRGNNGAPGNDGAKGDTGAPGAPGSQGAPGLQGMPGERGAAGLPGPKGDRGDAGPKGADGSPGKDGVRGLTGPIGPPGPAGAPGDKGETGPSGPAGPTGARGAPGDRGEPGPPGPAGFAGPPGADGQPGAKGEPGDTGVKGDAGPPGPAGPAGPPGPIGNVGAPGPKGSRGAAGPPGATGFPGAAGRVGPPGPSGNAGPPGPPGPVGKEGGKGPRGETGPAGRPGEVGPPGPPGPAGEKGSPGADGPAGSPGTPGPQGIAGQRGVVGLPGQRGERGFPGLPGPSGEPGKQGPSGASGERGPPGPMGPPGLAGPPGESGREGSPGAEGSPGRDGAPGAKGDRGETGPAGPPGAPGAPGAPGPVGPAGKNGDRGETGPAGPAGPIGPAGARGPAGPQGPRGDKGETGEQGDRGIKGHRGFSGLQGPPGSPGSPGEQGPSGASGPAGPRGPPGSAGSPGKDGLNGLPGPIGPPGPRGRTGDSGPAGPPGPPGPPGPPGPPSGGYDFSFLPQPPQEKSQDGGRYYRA
# T1 sequence (P02466 86-1125 limits assumed): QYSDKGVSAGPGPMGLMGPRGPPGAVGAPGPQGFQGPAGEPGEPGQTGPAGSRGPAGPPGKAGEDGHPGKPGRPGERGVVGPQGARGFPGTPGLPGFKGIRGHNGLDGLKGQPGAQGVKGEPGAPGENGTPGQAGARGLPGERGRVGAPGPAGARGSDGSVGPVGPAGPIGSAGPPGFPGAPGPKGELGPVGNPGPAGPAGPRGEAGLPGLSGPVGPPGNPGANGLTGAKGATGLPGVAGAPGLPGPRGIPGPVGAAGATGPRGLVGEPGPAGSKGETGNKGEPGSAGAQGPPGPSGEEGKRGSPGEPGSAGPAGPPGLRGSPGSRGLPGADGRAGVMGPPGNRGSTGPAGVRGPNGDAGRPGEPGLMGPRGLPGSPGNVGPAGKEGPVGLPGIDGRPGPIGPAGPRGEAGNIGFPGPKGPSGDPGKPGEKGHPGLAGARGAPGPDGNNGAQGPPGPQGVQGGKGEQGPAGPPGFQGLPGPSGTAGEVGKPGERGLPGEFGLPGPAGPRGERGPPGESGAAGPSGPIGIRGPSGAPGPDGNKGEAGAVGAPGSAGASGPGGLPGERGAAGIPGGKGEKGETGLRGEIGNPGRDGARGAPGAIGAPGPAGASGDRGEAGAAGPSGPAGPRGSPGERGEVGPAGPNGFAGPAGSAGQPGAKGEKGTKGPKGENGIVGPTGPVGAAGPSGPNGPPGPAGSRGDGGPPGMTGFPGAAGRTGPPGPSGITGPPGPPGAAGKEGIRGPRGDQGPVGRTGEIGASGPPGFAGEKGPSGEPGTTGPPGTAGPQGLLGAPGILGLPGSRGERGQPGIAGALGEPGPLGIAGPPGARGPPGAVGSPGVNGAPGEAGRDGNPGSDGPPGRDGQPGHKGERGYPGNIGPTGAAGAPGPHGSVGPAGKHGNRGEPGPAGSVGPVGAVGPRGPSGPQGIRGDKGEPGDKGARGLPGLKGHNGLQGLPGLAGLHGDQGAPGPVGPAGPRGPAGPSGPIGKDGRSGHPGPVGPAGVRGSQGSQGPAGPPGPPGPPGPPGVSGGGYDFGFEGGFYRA
# Experimental: as §1
# Samples for imaging were placed in glass tubes that were in turn placed in tubes containing water. Images were acquired at 4.7 T on a Bruker Biospec Imager using a Multi-Slice Multi-Echo Method with variable Relaxation Delay (MSMEVTR) experiment. The spin echo time and the relaxation delay were set to TE=11.2 ms and TR=500 ms, respectively with a flip angle of 30°. Images were acquired of sample 2, sample 4, sample 7, and sample 8. […] Sample 7 and 8 show uniform signal intensity.
# [6] = In vivo heart uptake in mice, gadolinium by ICP-MS (tail vein); design: species or system BALB/c mice; conditions: mouse, 10 μmol/kg tail vein, 15 minutes post-injection
# Experimental: In vivo heart uptake of these two compounds were also compared. […] The animals were sacrificed at 15 minutes post-injection. The organs were immediately removed and rinsed in saline, and then blotted dry. […] Both compounds have similar concentrations in the blood.
# [7] = test system: infarcted myocardium; assay: Mouse model of chronic infarction, MR imaging; conditions: mice with 7 day, 40 day or 210 day infarcts, 25 μmol/kg i.v.
# Experimental: Myocardial infarction was induced in C57BL/6 mice by occlusion of the left anterior descending coronary artery followed by reperfusion. The mice were anesthetized with an intraperitoneal (i.p.) injection of 100 μg pentobarbital sodium per gram body weight and a thorocotamy was performed. The pericardium was removed and the left anterior artery was sutured with a 7.0 silk suture for 60 minutes after which reperfusion was established.
# Imaging was performed on separate animals at 7 days, 40 days, or 210 days following infarction. Imaging was performed using on a Varian 4.7 T MRI system Mice were anesthetized with isoflurane (1 vol. % in oxygen). Three pediatric electrocardiogram (ECG) leads were attached to shaved limbs and a rectal temperature probe was placed. […] Temperature was maintained at 37.0±0.5° C. using circulating hot water. Imaging was performed prior to, and serially (every 5 minutes) post intravenous (tail vein) injection of 25 μmol/kg Compound ID NO. […] 6-8 short-axis inversion-recovery slices covering the whole heart from base to apex were acquired with TI=430 ms, TR=1000 ms, RE=4.3 ms and 2 averages.
# A heart with a 40 day old infarct was explanted, thoroughly washed in saline solution and fixed in a 3% by volume isotonic solution of formaldehyde for 12 hrs at 3° C. They were washed in PBS and stored in 70% ETOH before embedding in paraffin. […]
# [8] = test system: infarcted myocardium; assay: Myocardial infarction MR imaging in mouse (7 days post MI); conditions: 25 μmol/kg i.v.
# Experimental: A myocardial infarct (MI) was induced in a 28 g C57BL/6 mouse by a 1-hr occlusion of the left anterior descending coronary artery, followed by reperfusion. The mouse was allowed to recover. Seven days post MI, the mouse was anesthetized using a 2% mixture of isoflurane in oxygen and anesthesia was maintained with a 1% mixture. The mouse forelimbs were shaved and fitted with pediatric ECG leads (Blue Sensor, BRS-50-K/UJS, Ambu, Inc., Linthicum, Md.). […] Temperature was maintained at 37° C. using tubing that contained circulating, thermostated water. An i.v. line was implanted in the tail vein and the mouse was placed in the magnet.
# Images were acquired on a Varian 4.7-T Inova scanner. A cardiac-gated gradient echo inversion recovery sequence was used whereby the inversion time was set to null the signal from the myocardium. The inversion pulse was a non-selective sinc pulse with a TI of 430 ms and TR of 3 seconds. The excitation is slice selective at 90 degrees and 3 to 4 lines were acquired per TR. Scan time was 4-5 minutes.
# Baseline images were acquired. Typically 3-4 short-axis slices were acquired. […] Imaging was repeated out to an hour post injection.
# [9] = in 5.0 μM rat collagen gel, 10 μM Compound ID 1022 or 27 μM GdDTPA, 37° C.
# [10] = in PBS pH 7.4, 10 μM Compound ID 1022 or 27 μM GdDTPA, 37° C.
compound,measurement,setting,value
"O=C([O-])CN(CCN(CC(=O)[O-])CC(=O)O)CCN(CC(=O)[O-])CC(=O)O.[Gd+3] [GdDTPA, gadolinium diethylenetriaminepentaacetate, reference compound]",Heart:Blood,[1]; 1 min post injection,0.26
same,Heart:Blood,[1]; 5 min post injection,0.26
same,Blood (% ID/g),[1]; 1 min post injection,1.2 ± 0.2 % ID/g
same,Heart (% ID/g),[1]; 1 min post injection,0.32 ± 0.02 % ID/g
same,Blood (% ID/g),[1]; 5 min post injection,0.67 ± 0.12 % ID/g
same,Heart (% ID/g),[1]; 5 min post injection,0.17 ± 0.08 % ID/g
same,Heart:Buffer,[2]; buffer 3.0 μM,0.42 ± 0.06
same,Heart,"[2]; buffer 3.0 μM, 10 minutes recirculating perfusion",1.3 ± 0.3 nmol/g
same,Heart:Buffer,[2]; buffer 30 μM,0.46 ± 0.03
same,Heart,"[2]; buffer 30 μM, 10 minutes recirculating perfusion",14 ± 1.0 nmol/g
same,Heart,"[2]; perfused Langendorff rat heart, 3 μM compound in recirculated K-H buffer, 10 min perfusion, radiotracer counting",1.4 ± 0.02 nmol/g
same,Heart:Buffer,"[2]; ratio of heart concentration to buffer concentration (3.0 μM), 10 min perfusion",0.46 ± 0.05
same,Heart (% ID/g),[3]; 0 min after infusion,2.9 ± 1.5 % ID/g
same,Heart (% ID/g),"[3]; 10 min after infusion, non-recirculated buffer",0.014 ± 0.002 % ID/g
same,Heart (% ID/g),"[3]; time after infusion 0 min, 1 mL of 300 μM infused at 1 mL/min, buffer not recirculated",2.53 ± 0.50 % ID/g
same,Heart (% ID/g),"[3]; time after infusion 10 min, 1 mL of 300 μM infused at 1 mL/min, buffer not recirculated",0.056 ± 0.011 % ID/g
same,T1,[4]; [9],2.410 s
same,T1,[4]; [10],2.437 s
same,MR signal of centrifuged collagen gel pellet versus supernatant,[5],no increased concentration of GdDTPA in the gel relative to the supernatant
"Glu-DTPA-Gd-G.Q.W.H.C.T.T.R.F.P.H.H.Y.C.L.Y.G-PEG-H (GQWHCTTRFPHHYCLYG; disulfide 5-14 (inferred); not fully specified (N-terminus, C-terminus); also: Gd complex of DTPA) [SEQ ID NO. 186]",T1,[4]; [9],2.370 s
same,T1,"[4]; in 7.5 μM human collagen gel, 10 μM Compound ID 1022, 37° C.",2.100 s
same,T1,[4]; [10],2.375 s
same,MR signal of centrifuged collagen gel pellet versus supernatant,[5],the pellet for sample 4 was much brighter than the supernatant
CC(C)C[C@H](NC(=O)[C@@H]1CSSC[C@H](NC(=O)[C@H](Cc2c[nH]cn2)NC(=O)[C@H](Cc2c[nH]c3ccccc23)NC(=O)[C@H](CCCCNC(=O)CNC(=S)Nc2ccc(C[C@@H](CN(CCN(CC(=O)O)CC(=O)O)CC(=O)O)N(CC(=O)O)CC(=O)O)cc2)NC(=O)CNC(=S)Nc2ccc(C[C@@H](CN(CCN(CC(=O)O)CC(=O)O)CC(=O)O)N(CC(=O)O)CC(=O)O)cc2)C(=O)N[C@@H]([C@@H](C)O)C(=O)N[C@@H]([C@@H](C)O)C(=O)N[C@@H](CCCCNC(=S)Nc2ccc(C[C@@H](CN(CCN(CC(=O)O)CC(=O)O)CC(=O)O)N(CC(=O)O)CC(=O)O)cc2)C(=O)N[C@@H](Cc2ccccc2)C(=O)N2CCC[C@H]2C(=O)N[C@@H](Cc2c[nH]cn2)C(=O)N[C@@H](Cc2c[nH]cn2)C(=O)N[C@@H](Cc2ccc(O)cc2)C(=O)N1)C(=O)N[C@@H](Cc1ccc(O)cc1)C(=O)N[C@@H](Cc1ccc(-c2ccccc2)cc1)C(N)=O [Compound ID 800],Gadolinium concentrations in the blood,[6],14.3±2.3 nmol Gd/g tissue
same,Gadolinium concentrations in the heart,[6],25.5±2.0 nmol Gd/g tissue
same,MR appearance of infarct zone,[7],"infarct zone as hyperintense relative to the normal, viable myocardium"
same,enhancement of infarcted zones,[8],hyperenhancement of infarcted zones
same,persistence of the enhancement,[8],at least 1 hour
